From paper PMC11725145 (Acta Pharmaceutica Sinica. B, 2024) come the findings set out here.

A short description of data set [1]: Metabolic stability in rat liver microsomes. The data set is classed as in vitro ADME. (Liver microsomes are vesicles of endoplasmic reticulum, rich in cytochrome P450 enzymes.)
The next data set addresses PDE1 Q421A (Homo sapiens, UniProt Q14123, Q427A). Description: Inhibition of PDE1 mutant by 10a. As to conditions: Q421A vs wild type. Format: biochemical.
The target in the next data set is PDE1 F392A (Homo sapiens, UniProt Q14123, F398A). The experiment in a line: Inhibition of PDE1 mutant by 10a. Format: biochemical.
PDE1 F392A, sequence (Q14123 147-531 F398A): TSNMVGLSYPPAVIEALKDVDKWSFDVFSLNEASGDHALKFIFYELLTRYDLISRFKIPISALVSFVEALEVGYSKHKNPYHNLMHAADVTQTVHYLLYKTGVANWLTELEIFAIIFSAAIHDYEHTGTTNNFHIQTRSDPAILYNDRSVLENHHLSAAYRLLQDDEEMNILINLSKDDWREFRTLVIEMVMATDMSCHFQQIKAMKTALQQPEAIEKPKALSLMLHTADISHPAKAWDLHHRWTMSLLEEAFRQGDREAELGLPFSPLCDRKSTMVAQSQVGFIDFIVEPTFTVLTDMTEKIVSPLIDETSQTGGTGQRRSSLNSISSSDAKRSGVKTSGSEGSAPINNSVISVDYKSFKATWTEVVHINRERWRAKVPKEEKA
The next data set addresses PDE1 Y228A (Homo sapiens, UniProt Q14123, Y227A). The experiment in a line: Inhibition of PDE1 mutant by 10a. Format: biochemical.

PDE1 Y228A, sequence (Q14123 147-531 Y227A): as the sequence (Q14123 147-531 F398A) above, with Y81A, A252F counted along it
PDE1 Q421A, sequence (Q14123 147-531 Q427A): as the sequence (Q14123 147-531 F398A) above, with A252F, Q281A counted along it

As a reminder, the half-life is the time in which the quantity being followed falls by half. As to `O=C1O/C(=C\c2cc(F)ccc2OCCN2CCOCC2)c2cc(Cc3cccc(F)c3)[nH]c(=O)c21` [compound 11b], the half-life in data set [1] came out at 29.8 min.

In turn, `Cc1cc2c(c(=O)[nH]1)C(=O)O/C2=C\c1cc(F)ccc1OCCN1CCOCC1` [compound 11a] came in with a half-life in data set [1] of 8 min.

Regarding `O=C1O/C(=C\c2cc(F)ccc2OCCN2CC[C@@H](F)C2)c2cc(Cc3cccc(F)c3)[nH]c(=O)c21` [11c], in data set [1], the half-life amounted to 13.5 min.

A word on the IC50: it is the point on the concentration scale where inhibition reaches its midpoint. Low readings indicate higher potency, high ones lower potency. Take `Cc1cc2c(c(=O)[nH]1)C(=O)O/C2=C\c1cc(F)ccc1OC(C)C` [compound 10a]: the “loss of binding affinity” value is 8 fold at PDE1 Q421A, 14 fold on PDE1 F392A (F392A vs wild type) and ~3 fold on PDE1 Y228A (Y228A vs wild type). Besides, the figures for the IC50 on PDE1 F392A and on PDE1 Y228A were 0.231 µM and 0.043 µM, respectively.
